This is an account of results in ChEMBL document CHEMBL1131914, “Carbohydroxamido-oxazolidines: antibacterial agents that target lipid A biosynthesis” (Bioorg Med Chem Lett, 1999).

In assay [1] the target is T1, UDP-3-O-acyl-N-acetylglucosamine deacetylase (Escherichia coli K-12, UniProt P0A725).
T1 sequence (P0A725 whole entry): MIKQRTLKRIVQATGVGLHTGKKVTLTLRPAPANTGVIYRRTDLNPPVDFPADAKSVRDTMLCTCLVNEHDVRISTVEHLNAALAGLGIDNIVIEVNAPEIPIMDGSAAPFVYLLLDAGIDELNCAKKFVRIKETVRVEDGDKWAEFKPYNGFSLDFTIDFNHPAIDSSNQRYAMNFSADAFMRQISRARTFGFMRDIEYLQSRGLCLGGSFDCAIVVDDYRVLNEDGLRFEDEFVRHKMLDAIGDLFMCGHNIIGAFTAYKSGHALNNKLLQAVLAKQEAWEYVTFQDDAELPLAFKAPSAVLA
In words: Inhibition of UDP-3-O-[R-3-hydroxymyristoyl]-GlcNAc deacetylase using coupled radiochemical assay (WAVE) in Escherichia coli strain JB 1104.

For assay [2], the target named is T1, UDP-3-O-acyl-N-acetylglucosamine deacetylase. The assay is described as follows: Inhibition of UDP-3-O-[R-3-hydroxymyristoyl]-GlcNAc deacetylase using direct deacetylase assay (DEACET) in Escherichia coli strain JB 1104.
In assay [3] the test system is Escherichia coli. The assay is described as follows: Antibacterial activity against Escherichia coli was determined; Ranges from […]. The assay is classed as functional.
Assay [4] deals with Escherichia coli. In words: Antibacterial activity against Escherichia coli mutant (envA1) was determined. In kind it is functional.
The test system of assay [5] is Escherichia coli. The assay is described as follows: Antibacterial activity against Escherichia coli was determined; Ranges from 200-400. The assay is classed as functional.
Assay [6] has as its system Escherichia coli. The assay is described as follows: Antibacterial activity of against Escherichia coli mutant (envA1) was determined. The assay is classed as functional, organism-based.
Assay [7] has as its system Escherichia coli. In words: Antibacterial activity against Escherichia coli was determined. The assay is classed as functional.
Assay [8] has as its system Serratia. In words: Antibacterial activity against Serratia was determined; NA=not active. The assay is classed as functional, organism-based.
Assay [9] has as its system Escherichia coli. The assay is described as follows: Antibacterial activity against Escherichia coli mutant (envA1) was determined; Ranges from 0.008-0.016. In kind it is functional.
Assay [10] relates to Escherichia coli. In words: Antibacterial activity against Escherichia coli was determined; Ranges from 1-3. The assay is classed as functional.
Assay [11] has as its system Pseudomonas. The assay is described as follows: Antibacterial activity against Pseudomonas was determined; NA=not active. The assay is classed as functional, organism-based.
Assay [12] deals with Escherichia coli. In words: Antibacterial activity against Escherichia coli was determined; Ranges from 25-50. The assay is classed as functional.

The structures appear in SMILES notation. ≈ marks a conversion by molar mass, not a printed value. Calls of active or inactive are those of the source. The rule behind the calls is not given here.

On to `O=C(NO)[C@H]1COC(c2ccccc2)=N1`, for which the IC50 (in general, the concentration at which inhibition is half-maximal) is 1500 nM in assay [1] (read-out: IC50) and 6000 nM in assay [2].
Take `CCCc1cc(C2=NC(C(=O)NO)CO2)cc(OC)c1OC` (configuration not stated): the values for the MIC in assay [3] and in assay [4] were 3 µg/mL (≈ 9.73 µM) and below 0.05 µg/mL, respectively. Also, half-maximal inhibition in assay [2] (IC50) required 50 nM.
As to `O=C(NO)C1COC(c2ccccc2)=N1` (configuration not stated), the MIC (commonly the lowest concentration that inhibits growth of the organism) worked out at 200 µg/mL (≈ 970 µM) in assay [5] and 3.6 µg/mL (≈ 17.5 µM) in [4]. Also, the IC50 in assay [1] (read-out: IC50) worked out at 3000 nM; in assay [2] it was 8500 nM.
With `CCCc1ccc(C2=N[C@@H](C(=O)NO)CO2)cc1`, the IC50 in assay [1] (read-out: IC50) amounted to 100 nM. Further, in assay [6], the MIC entry is “inactive”.
`CCc1ccc(C2=N[C@@H](C(=O)NO)CO2)cc1`: the half-inhibitory concentration (IC50) in assay [1] (read-out: IC50) was 200 nM; in assay [2] it was 600 nM. In addition, the MIC entry in [6] was “inactive”.
As for `O=C(NO)C1COC(c2ccncc2)=N1` (configuration not stated), it took 100000 nM to reach half-maximal inhibition in assay [2] (IC50). Moreover, the MIC result in [6] is “inactive”.
As to `CCCc1cc(C2=NC(C(=O)NO)CO2)cc(OCc2ccccc2)c1OC` (configuration not stated), the MIC in assay [4] is below 0.008 µg/mL; in [7], 25 µg/mL (≈ 65 µM). The same molecule yielded an IC50 in [2] of 20 nM.
Regarding `CCCc1cc(C2=NC(C(=O)NO)CO2)cc(O)c1OC` (configuration not stated), the MIC in [4] came to 0.06 µg/mL (≈ 0.204 µM); in assay [7], 12.5 µg/mL (≈ 42.5 µM). Besides, the IC50 in [2] worked out at 100 nM.
`O=C(NO)C1COC(c2cccnc2)=N1` (configuration not stated): the IC50 in assay [2] worked out at 100000 nM. Moreover, the MIC entry in assay [6] is “inactive”.
The matching figures for `COc1cc(C2=N[C@@H](C(=O)NO)CO2)cc(OC)c1OC`: 300 nM and “inactive”.
Turning to `CCCc1cc(C2=N[C@@H](C(=O)NO)CO2)cc(OC)c1OC`, in assay [2], the IC50 stood at 30 nM. The MIC result in [8] and in [11] was “inactive” in each case. The MIC was 0.008 µg/mL (≈ 0.0259 µM) in [9] and 1 µg/mL (≈ 3.24 µM) in assay [10].
For `O=C(O)C1COC(c2ccccc2)=N1` (configuration not stated), the IC50 in assay [1] (read-out: IC50) is above 400000 nM.
Turning to `Cc1cccc(C2=NC(C(=O)NO)CO2)c1` (configuration not stated), the IC50 in assay [1] (read-out: IC50) was found to be 1100 nM. Besides, the MIC entry in [6] was “inactive”.
In the case of `CN(OCc1ccccc1)C(=O)[C@H]1COC(c2ccccc2)=N1`, the IC50 in [1] (read-out: IC50) is above 400000 nM.
As for `CCCc1cc(C2=NC(C(=O)NO)CO2)cc(OC)c1O` (configuration not stated), the MIC is 0.39 µg/mL (≈ 1.33 µM) in assay [4] and above 100 µg/mL in assay [7]. The same molecule had an IC50 in assay [2] of 1400 nM.
In the case of `COC(=O)C1COC(c2ccccc2)=N1` (configuration not stated), the IC50 in assay [1] (read-out: IC50) is above 400000 nM.
Take `CCCc1cc(C2=NC(C(=O)NO)CO2)ccc1OC` (configuration not stated): the values for the MIC in assay [4] and in assay [7] were 0.1 µg/mL (≈ 0.359 µM) and 12.5 µg/mL (≈ 44.9 µM), respectively. The same molecule gave an IC50 in [2] of 300 nM.
For `O=C(NO)[C@H]1COC(c2ccco2)=N1`, in [1] (read-out: IC50), the IC50 was 9000 nM. Further, the MIC result in assay [6] was “inactive”.
In the case of `CCCc1cccc(C2=N[C@@H](C(=O)NO)CO2)c1`, the IC50 came to 50 nM in assay [1] (read-out: IC50) and 1600 nM in assay [2]. In addition, the MIC in [4] worked out at 0.06 µg/mL (≈ 0.242 µM); in [7] it was 12.5 µg/mL (≈ 50.3 µM).
`Cc1ccccc1C1=NC(C(=O)NO)CO1` (configuration not stated): the IC50 in assay [1] (read-out: IC50) was 2600 nM. The MIC entry in assay [6] is “inactive”.
Take `O=C(NO)[C@@H]1COC(c2ccccc2)=N1`: in assay [1] (read-out: IC50), the IC50 stood at 360000 nM.
Turning to `CN(O)C(=O)[C@H]1COC(c2ccccc2)=N1`, the IC50 in assay [1] (read-out: IC50) is above 400000 nM.
On to `COc1ccc(C2=N[C@@H](C(=O)NO)CO2)cc1`, for which the IC50 came to 300 nM in assay [1] (read-out: IC50) and 1400 nM in assay [2]. The MIC was 0.25 µg/mL (≈ 1.06 µM) in [4] and 25 µg/mL (≈ 106 µM) in [12].
`O=C(NO)C1COC(c2ccccc2Cl)=N1` (configuration not stated) came in with an IC50 in [2] of 30000 nM.
In the case of `Cc1ccc(C2=NC(C(=O)NO)CO2)cc1` (configuration not stated), in [1] (read-out: IC50), the IC50 came to 1700 nM. Moreover, the MIC result in assay [6] is “inactive”.
On to `O=C(NO)C1COC(c2c(Cl)cccc2Cl)=N1` (configuration not stated), for which the IC50 result in assay [1] is “Not Active”; in assay [2] it was above 200000 nM. Moreover, the MIC entry in assay [6] was “inactive”.
